Patent US20250312469A1 (CANGET BIOTEKPHARMA, priority 2024, published 2025)
“Also recorded” adds a separate entry of the source.

Assays:
[1] = system: Agrin and its downstream targets; test: Western blots of Agrin and downstream targets in pancreatic cancer cell lines; type: cell-based, human
Experimental: For frozen prostate cancer tissue specimens and their adjacent non-tumor tissues (if any) obtained from Roswell Park pathology network, 30-50 mg of each tissue in a 1.5 Eppendorf tube containing 500 μL of 2×SDS lysis buffer containing Tris pH 6.8+4% SDS+10% Glycerol were homogenized through ultrasound treatment for 10-15 second per time with 3-6 times until tumor tissue was lysed. After all tissues were processed, 1.5 mL tubes were centrifuged at 13,000 rom in a microcentrifuge for 1-2 min and then the supernatant in each tube was transferred into a new 1.5 mL tube for protein concentration measurement (refer to the section of “Studies with Human patient tumor specimens” for more information). Twenty to fifty μg total protein from each sample (cell lysis or tumor tissue lysis) were heated at 95° C. for 5 minutes after mixing with equal volumes of 2× SDS loading buffer. […] The membrane was then blocked in 5% skim milk in TBS-T buffer (20 mM Tris/HCl pH 7.5, 0.137 M NaCl, and 0.1% Tween 20) at room temperature for 2-3h. […] Proteins of interest were detected using Western Lightning ECL-Plus (Perkin Elmer, Waltham, MA) and visualized by various times (3-120 seconds) of exposure. Actin, tubulin and/or GAPDH were detected as the internal control to normalize total protein loading for each sample.

Whole blood stability = type: in vitro ADME, human
Experimental: Both matrices were adjusted to pH 7.4 prior to initiating the experiments. A DMSO stock as first prepared for the test article. […] The vials were kept in a benchtop Thermomixer for the duration of the experiment. Aliquots (100 μL) were taken at each time point (0, 15, 30, 60, and 120 minutes) and added to 96-well plates which had been pre-filled with 300 μL of acetonitrile (ACN). Samples were stored at 4° C. until the end of the experiment. […] Analytical conditions are outlined in Appendix 1.

in vitro = conditions: for microsomal CLint at 0.5 μM / half-life at 0.5 μM: both; for microsomal CLint at 0.5 μM: s9, CLint (intrinsic clearance); for microsomal CLint at 0.5 μM / half-life at 0.5 μM / % Remaining of Initial (n = 1): human liver S9 fraction; for half-life at 0.5 μM: s9, Half-life (min)
hERG = hERG (Homo sapiens, UniProt Q12809); test: cell-based
Sequence of hERG (Q12809 whole entry): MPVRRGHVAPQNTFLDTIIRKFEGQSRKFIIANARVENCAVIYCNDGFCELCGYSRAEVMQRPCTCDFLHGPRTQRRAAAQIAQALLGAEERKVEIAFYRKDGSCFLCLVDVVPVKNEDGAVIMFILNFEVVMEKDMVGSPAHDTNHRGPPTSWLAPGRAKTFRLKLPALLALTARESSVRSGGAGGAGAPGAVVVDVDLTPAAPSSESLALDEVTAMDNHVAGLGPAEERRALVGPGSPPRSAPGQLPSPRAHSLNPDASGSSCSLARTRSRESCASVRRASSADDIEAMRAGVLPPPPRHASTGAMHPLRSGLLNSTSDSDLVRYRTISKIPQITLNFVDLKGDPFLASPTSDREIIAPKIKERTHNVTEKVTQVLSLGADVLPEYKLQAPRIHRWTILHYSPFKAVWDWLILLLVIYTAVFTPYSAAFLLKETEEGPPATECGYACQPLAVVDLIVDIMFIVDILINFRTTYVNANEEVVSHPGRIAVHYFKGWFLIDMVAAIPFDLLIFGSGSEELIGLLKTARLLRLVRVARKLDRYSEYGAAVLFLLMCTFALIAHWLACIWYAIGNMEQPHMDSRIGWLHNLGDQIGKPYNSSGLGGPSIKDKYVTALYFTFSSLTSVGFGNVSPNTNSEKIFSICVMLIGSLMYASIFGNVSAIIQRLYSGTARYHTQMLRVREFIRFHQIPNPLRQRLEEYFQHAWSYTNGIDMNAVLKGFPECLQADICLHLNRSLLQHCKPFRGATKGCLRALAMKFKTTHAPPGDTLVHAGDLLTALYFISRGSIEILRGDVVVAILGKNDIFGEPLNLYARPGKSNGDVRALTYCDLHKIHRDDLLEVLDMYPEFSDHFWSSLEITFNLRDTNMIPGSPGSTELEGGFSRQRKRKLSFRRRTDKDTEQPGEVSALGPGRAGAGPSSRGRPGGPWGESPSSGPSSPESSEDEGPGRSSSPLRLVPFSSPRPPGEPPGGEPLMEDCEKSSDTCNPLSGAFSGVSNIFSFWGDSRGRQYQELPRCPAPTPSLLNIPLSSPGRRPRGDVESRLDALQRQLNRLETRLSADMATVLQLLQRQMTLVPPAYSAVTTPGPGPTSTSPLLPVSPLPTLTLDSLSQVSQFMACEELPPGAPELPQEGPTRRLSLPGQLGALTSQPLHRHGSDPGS
Experimental: All cell suspensions, buffers, and test compound solutions were at room temperature during the experiment. Briefly, Chinese hamster ovary (CHO) cells stably transfected with hERG (cell line obtained from Cytomyx, UK) were seeded in each well of a PatchPlate™ positioned over a small hole at the bottom of each well to form an electrical seal. The resistance of each seal was measured via a common ground electrode in the intracellular compartment and individual electrodes placed into each of the upper wells. Electrical access to the cell was then achieved by circulating a perforating agent, amphotericin B, underneath the PatchPlate™. The hERG channels were activated by applying a depolarizing step to +40 mV for 5 s and then clamped at […] for 4 s to elicit the hERG tail current, before returning to […] for 0.3 s. […] Each concentration was tested in 4 replicate wells on the PatchPlate™.
All cell suspensions, buffers and test compound solutions were at room temperature during the experiment. (2) The cells used were Chinese hamster ovary (CHO) cells stably transfected with hERG (cell line obtained from Cytomyx, UK). A single cell suspension was prepared in extracellular solution (Dulbecco's phosphate buffered saline with calcium and magnesium pH 7.2) and aliquots added automatically to each well of a PatchPlate™. The cells were then positioned over a small hole at the bottom of each well by applying a vacuum beneath the plate to form an electrical seal. The vacuum was applied through a single compartment common to all wells which was filled with intracellular solution (buffered to pH 7.2 with HEPES). The resistance of each seal was measured via a common ground electrode in the intracellular compartment and individual electrodes placed into each of the upper wells. Electrical access to the cell was then achieved by circulating a perforating agent, amphotericin B, underneath the PatchPlate™. (3) The pre compound hERG current was then measured. […] The hERG channels were then activated by applying a depolarizing step to +40 mV for 5 sec and then clamped at […] for 4 sec to elicit the hERG tail current, before returning to […] for 0.3 sec. […] (5) The IonWorks™ HT instrument automatically added test compound dilutions to the upper wells of the PatchPlate™ from a 96 well microtitre plate. The test compound was left in contact with the cells for 300 sec before recording currents using the same voltage step protocol as in the pre compound scan. […] (6) Each concentration was tested in 4 replicate wells on the PatchPlate™ (maximum of 24 data points).
The percentage inhibition was calculated using the following equation: […]

With `CCC1(O)C(=O)OCc2c1cc1n(c2=O)Cc2cc3cc4c(cc3nc2-1)OCO4` (stereo not drawn) [FL118] the “DDX5, Agrin, YAP1, Integrin expression and FAK phosphorylation” value ([1]; Mia Paca-2, Panc-1, BxPC-3, 10, 100, 500 nM) was “inhibits the expression of DDX5, Agrin, YAP1 and Integrin as well as the FAK phosphorylation status”, the “Agrin and YAP1 proteins” value ([1]; Panc-1 cells) was “inhibits Agrin and YAP1 proteins” and the half-life (Whole blood stability; 0.5 μM) was “long half-life”. For the same molecule, the “Percent Remaining” value (Whole blood stability; Human Whole Blood, 0 min) was 100%, the “Percent Remaining” value (Whole blood stability; Human Whole Blood, 15 min) was 108% and the “Percent Remaining” value (Whole blood stability; Human Whole Blood, 30 min) was 68%. The “Percent Remaining” value (Whole blood stability; Human Whole Blood, 60 min) was 61%, the “Percent Remaining” value (Whole blood stability; Human Whole Blood, 120 min) was 35% and the half-life at 0.5 μM (Whole blood stability; both sexes, whole blood (sodium heparin), pH 7.4, Human Whole Blood) was 1.23 h. For the same molecule, the microsomal CLint at 0.5 μM (in vitro; human, calculated (in parentheses)) was 11.1 µL/min/mg, the microsomal CLint at 0.5 μM (in vitro; human, bound) was less than 11.6 µL/min/mg and the half-life at 0.5 μM (in vitro; human, calculated (in parentheses), calculated half-life longer than the experiment) was 1.05 h. For the same molecule, the half-life at 0.5 μM (in vitro; human, expressed as > the longest incubation time) was greater than 1 h, the “% Remaining of Initial (n = 1)” value (in vitro; 0 min) was 100% and the “% Remaining of Initial (n = 1)” value (in vitro; 10 min) was 82%. The “% Remaining of Initial (n = 1)” value (in vitro; 20 min) was 73%, the “% Remaining of Initial (n = 1)” value (in vitro; 30 min) was 69% and the “% Remaining of Initial (n = 1)” value (in vitro; 60 min) was 52%. The half-life (in vitro; human, s9) was “long half-life”, the IC50 (hERG) was greater than 1 µM and the “effect on hERG activity” value (hERG; CHO cells stably transfected with hERG, FL118 3-1000 nM) was “no inhibitory effects; also recorded: does not exhibit an inhibition of hERG activity”. It also gave an inhibition at 300 s, 0.003 µM (hERG; human, pH 7.2) of 14.8%, an inhibition at 300 s, 0.01 µM (hERG; human, pH 7.2) of 18.7% and an inhibition at 300 s, 0.03 µM (hERG; human, pH 7.2) of 5.6%. For the same molecule, the inhibition at 300 s, 0.1 µM (hERG; human, pH 7.2) was -5.2%, the inhibition at 300 s, 0.3 µM (hERG; human, pH 7.2) was -2.9% and the inhibition at 300 s, 1 µM (hERG; human, pH 7.2) was 19.9%.
